Reference: patent US8071103B2, “Pharmaceutical composition comprising a human GLP-1 mimetibody” (Centocor, Inc., priority 2006, dated 2011)
Where no end group is shown, it is not given here.

Experiments:
db/db mice = assay: Blood glucose after intravenous dosing in db/db mice; assay type: in vivo; details: 0.5-4 hours post-dosing
Description: Blood glucose was monitored 0.5, 1, 2, 3, and 4 hours post-dosing.

normal dogs = assay: Gastric emptying in normal dogs; assay type: in vivo, beagle dogs; details: relative to vehicle
Description: A gastric cannula was surgically implanted into female beagle dogs (10-15 kg) under general anesthesia and allowed to recover for at least 2 weeks. Dogs were fasted for 24 hours after which water was freely available. The gastric cannula was opened and gastric juice and food remnants were removed with 40-50 ml of lukewarm water. Groups of six dogs were dosed subcutaneously with lidamidine, an alpha2 agonist (0.63 mg/kg), 60 minutes before the meal, a positive control for delay of gastric emptying. […] Five minutes before the meal, the gastric cannula was opened to determine the amount of fluid present in stomach for baseline value and fluid was promptly reintroduced. Then a test meal consisting of 250 ml of a glucose solution (5 g/1) was administered via the cannula and allowed to remain in the stomach for 30 minutes. Gastric contents were drained from the stomach to measure total volume after 30 minutes. […] Glucose concentrations were evaluated for collected samples and used to determine the absolute amount of glucose remaining in the stomach at each time point. The percentage of glucose retained in the stomach was determined from the starting value and the concentration of glucose at each time point and plotted as a function of time. The time at which 50% of the gastric contents were retained was determined by fitting of the curves to a single exponential.

RINm cells = assay: Insulin secretion in RINm cells; assay type: cell-based; details: peptides 0-5 nM, mimetibodies 5 or 50 nM, ELISA
Description: GLP-1 MMB causes insulin secretion in RINm cells. To test the effect of GLP-1 MMB in insulin secretion, RINm cells were treated with increasing concentrations of GLP-1 (7-36) peptide (0-5 nM), exendin-4 peptide (0-5 nM), or various GLP-1 mimetibodies (5 or 50 nM) and the amount of insulin secreted was measured via ELISA. All GLP-1 MMBs tested had activities in stimulating insulin secretion in RINm cells (FIG. 6).

GLP-1 receptor [1] = assay: Food intake in GLP-1R−/− and wild type mice; assay type: in vivo; details: GLP-1R−/− mice, single iv, GLP-1 MMB 1 mg/kg, exendin-4 0.07 mg/kg
Description: (§1) Materials/Methods: Animals: Male GLP-1R−/− and age matched wild type mice were randomized into three treatment groups (n=5) based on body weight and fasting blood glucose.

GLP-1 receptor [2] = target: T1, GLP-1 receptor (Mus musculus, UniProt O35659); assay: Food intake in GLP-1R−/− and wild type mice; assay type: in vivo; details: wild type mice, single iv, GLP-1 MMB 1 mg/kg, exendin-4 0.07 mg/kg
T1 construct: Male GLP-1R−/− and age matched wild type mice; from tissue; host or cells: whole animal (wild type mice; GLP-1R-/- mice as receptor-free control)
T1 sequence (O35659 22-463): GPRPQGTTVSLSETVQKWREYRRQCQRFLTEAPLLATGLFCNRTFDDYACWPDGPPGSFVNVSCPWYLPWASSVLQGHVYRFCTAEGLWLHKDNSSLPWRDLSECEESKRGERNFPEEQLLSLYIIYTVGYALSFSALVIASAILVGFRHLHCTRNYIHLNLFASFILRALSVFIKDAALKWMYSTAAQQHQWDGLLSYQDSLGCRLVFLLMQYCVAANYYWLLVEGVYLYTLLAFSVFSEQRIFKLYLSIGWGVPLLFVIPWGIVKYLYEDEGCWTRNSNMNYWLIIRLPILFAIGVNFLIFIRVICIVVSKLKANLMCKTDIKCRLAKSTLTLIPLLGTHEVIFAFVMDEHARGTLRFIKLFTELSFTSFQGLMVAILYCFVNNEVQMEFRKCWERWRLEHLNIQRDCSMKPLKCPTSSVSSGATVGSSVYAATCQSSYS
Description: as §1

GLP-1 receptor [3] = target: T1, GLP-1 receptor; assay: Glucose tolerance test (ipGTT) in GLP-1R−/− and wild type mice; assay type: in vivo; details: wild type mice, single iv, GLP-1 MMB 1 mg/kg, exendin-4 0.07 mg/kg
Description: as §1
Glucose tolerance test (ipGTT): Mice were fasted overnight and dosed intravenously as discussed above. Fasting glucose was measured via tail snips using a hand-held glucometer (LifeScan). At t=0 min, mice were dosed i.p. with D-glucose (1.0 mg/g, Sigma) and blood glucose was measured after 15, 30, 60, 90 and 120 min using tail vein blood

GLP-1 receptor [4] = assay: Gastric emptying in GLP-1R−/− and wild type mice; assay type: in vivo; details: GLP-1R−/− mice, single iv, GLP-1 MMB 1 mg/kg, exendin-4 0.07 mg/kg
Description: as §1
(§2) Gastric Emptying: Mice were fasted overnight. The next morning mice were re-fed for 1 h, food intake was recorded and the mice were deprived of food for the rest of the study. Mice were dosed intravenously as discussed above. Two hours post-dosing mice were euthenized.
(§3) The stomach was exposed by laparotomy, ligated at both the pylorus and cardia and removed.
(§4) The stomach content wet weight was measured. Equation 1 was used to calculate the percent of food remaining in the stomach. (Stomach Content Wet Weight (g)/Food Intake (g))*100 Equation (1)

GLP-1 receptor [5] = target: T1, GLP-1 receptor; assay: Gastric emptying in GLP-1R−/− and wild type mice; assay type: in vivo; details: wild type mice, single iv, GLP-1 MMB 1 mg/kg, exendin-4 0.07 mg/kg
Description: as §1, §2, §3, §4

Molecule: CC[C@H](C)[C@H](NC(=O)[C@H](Cc1ccccc1)NC(=O)[C@H](CCC(=O)O)NC(=O)[C@H](CCCCN)NC(=O)[C@H](C)NC(=O)[C@H](C)NC(=O)[C@H](CCC(N)=O)NC(=O)CNC(=O)[C@H](CCC(=O)O)NC(=O)[C@H](CC(C)C)NC(=O)[C@H](Cc1ccc(O)cc1)NC(=O)[C@H](CO)NC(=O)[C@H](CO)NC(=O)[C@@H](NC(=O)[C@H](CC(=O)O)NC(=O)[C@H](CO)NC(=O)[C@@H](NC(=O)[C@H](Cc1ccccc1)NC(=O)[C@@H](NC(=O)CNC(=O)[C@H](CCC(=O)O)NC(=O)[C@H](C)NC(=O)[C@@H](N)Cc1c[nH]cn1)[C@@H](C)O)[C@@H](C)O)C(C)C)C(=O)N[C@@H](C)C(=O)N[C@@H](Cc1c[nH]c2ccccc12)C(=O)N[C@@H](CC(C)C)C(=O)N[C@H](C(=O)N[C@@H](CCCCN)C(=O)NCC(=O)N[C@@H](CCCNC(=N)N)C(N)=O)C(C)C [GLP-1 peptide]
- blood glucose (db/db mice): lowered blood glucose at 30 minutes

Molecule: CN=C(N)NC(=O)Nc1c(C)cccc1C [lidamidine]
- gastric emptying (normal dogs): significant delay in gastric emptying

Molecule: GLP-1 (7-36) peptide: wide-type GLP-1 (7-36) peptide (HAEGTFTSDVSSYLEGQAAKEFIAWLVKGR; ends and bridges not checked; UniProt P01275 98-127, looked up)
- insulin secretion in RINm cells (RINm cells): stimulates insulin release

Molecule: exendin-4 [reference compound]
- food intake (GLP-1 receptor [1]): no effect
- 24 hour cumulative food intake compared to CNTO1996 (GLP-1 receptor [2]): statistically significant reduction
- AUC of ipGTT (GLP-1 receptor [3]): statistically significant reduction
- insulin secretion in RINm cells (RINm cells): stimulates insulin release
- gastric emptying (GLP-1 receptor [4]): no effect
- stomach content (percent of food remaining) 2 h after dosing compared to CNTO1996 (GLP-1 receptor [5]): statistically significant increase
